Experimental data as given in patent US8557763B2, “Synthetic peptides that enhance tight junction permeability” (Alba Therapeutics Corporation, priority 2007, dated 2013).
Where no end group is shown, it is not given here. [ ]: non-standard residue; d: D form. AllylGly = C=CC[C@H](N)C(=O)O

Columns and labels:
CaCo2 monolayers [1] = assay: Lucifer Yellow (LY) permeability assay through CaCo2 monolayers; assay type: cell-based; set-up: key to Enhanced LY permeability: + indicates an enhancement of the permeability of the tight junctions were observed; − indicates no enhancement of permeability was observed; settings: CaCo2 monolayers, Lucifer Yellow flux
Description: (§1) Agonists of tight junctions can be identified by their ability to enhance the flux of compounds (e.g. ions, Lucifer Yellow) through a cell monolayer that comprises tight junctions; or by their ability to reduce TEER across a cell monolayer that comprises tight junctions. Treatment of CaCo2 monolayers with peptide FCIGRL (SEQ ID NO: 1) led to a 51-fold enhancement of Lucifer Yellow permeability through CaCo2 monolayers compared to vehicle alone.
(§2) Tight junction agonists can be identified and tested using the following method:
(§3) Determination of TEER and Lucifer Yellow Flux
(§4) Prepare Modified Hank's Balanced Salt Solution (MHBSS) by obtaining 1 L bottle of HBSS removing 10 ml of HBSS and replacing it with 10 ml HEPES buffer pH 7.0. Adjust pH to 7.4±0.1 using concentrated NaOH (10N).
(§5) Remove CaCo-2 cells from incubator, grown on 12-well, 3.0 μM, polycarbonate Transwell® filters (Corning) and record passage#, date cells seeded and age in days.
(§6) Aspirate cell culture medium from both the apical (AP) and basolateral (BL) compartments, replacing with 0.5 ml and 1.5 ml of MHBSS, respectively. Incubate cells at 37° C. for 30 minutes.
(§7) Aspirate solution from the apical compartment of each filter (n=3 per condition) and replace with 0.5 ml of control and test solutions containing Lucifer Yellow and test compound if appropriate.
(§8) Place all plates into incubator set at 37° C. (±0.2), 50 RPM (±5) for a total of 180 minutes.
At t=60, 120 and 180 minutes remove […] from each basolateral compartment and place it in a 96-well plate for Lucifer Yellow analysis, replace with 100 μl of MHBSS.
Make a Lucifer Yellow standard curve with the following dilutions (7500 μM, 3750 μM, 750 μM, 375 μM, 37.5 μM, 7.5 μM, 3.75 μM, 0.75 μM) and pipette 100 μL of each into a 96-well plate except for the first three standards mentioned above which require a 1:10 dilutions prior to transferring to the 96-well plate.
Harvest the remaining start solutions and what is left in each apical compartment into 1.5 ml vials. Freeze at −20° C. for future analysis.
Analyze each 96-well plate in a Tecan Spectra Fluor Plus using Magellan at 485 and 535 nm.
(§9) Cells: CaCo-2 cells passage 40-60 grown on Transwell® plates for 21-28 days
(§10) Culture Medium: DMEM supplemented with 10% fetal bovine serum, 1% NEAA, 1% Penn/Strep
(§11) Buffers: Hank's Balanced Salt Solution (HBSS) without calcium and magnesium
(§12) Flasks: 100×20 mm Tissue culture dish Falcon.
(§13) Plates: 12 well polycarbonate Transwell® filters; 0.3 uM pore size

CaCo2 monolayers [2] = assay: Trans Epithelial Electric Resistance (TEER) across CaCo2 monolayers; assay type: cell-based; set-up: key to Reduced TEER: + indicates an enhancement of the permeability of the tight junctions were observed; − indicates no enhancement of permeability was observed; settings: CaCo2 monolayers
Description: as §1
Treatment of CaCo2 monolayers with peptide FCIGRL led to a 16-fold decrease in TEER across CaCo2 monolayers compared to vehicle alone.
as §2, §3, §4, §5, §6
Using the MilliCell®-ERS instrument (Millipore), measure and record the transepithelial electrical resistance (TEER) across each filter and record.
as §7, §8
At t=30, 60, 120 and 180 minutes, measure and record the transepithelial electrical resistance (TEER) across each filter using the MilliCell-ERS instrument.
as §9, §10, §11, §12, §13

| Substance | Enhanced LY permeability (CaCo2 monolayers [1]) | Reduced TEER (CaCo2 monolayers [2]) |
| --- | --- | --- |
| 49 (F[AllylGly]IFRL-NH2; N-terminus assumed; SMILES C=CC[C@H](NC(=O)[C@@H](N)Cc1ccccc1)C(=O)N[C@H](C(=O)N[C@@H](Cc1ccccc1)C(=O)N[C@@H](CCCNC(=N)N)C(=O)N[C@@H](CC(C)C)C(N)=O)[C@@H](C)CC) [compound 49] | + | + |
| 46 (F[AllylGly]IDRL-NH2; N-terminus assumed; SMILES C=CC[C@H](NC(=O)[C@@H](N)Cc1ccccc1)C(=O)N[C@H](C(=O)N[C@@H](CC(=O)O)C(=O)N[C@@H](CCCNC(=N)N)C(=O)N[C@@H](CC(C)C)C(N)=O)[C@@H](C)CC) [compound 46] | + | + |
| 37 (F[AllylGly]NGRL-NH2; N-terminus assumed; SMILES C=CC[C@H](NC(=O)[C@@H](N)Cc1ccccc1)C(=O)N[C@@H](CC(N)=O)C(=O)NCC(=O)N[C@@H](CCCNC(=N)N)C(=O)N[C@@H](CC(C)C)C(N)=O) [compound 37] | + | + |
| 57 (F[AllylGly]IGEL-NH2; N-terminus assumed; SMILES C=CC[C@H](NC(=O)[C@@H](N)Cc1ccccc1)C(=O)N[C@H](C(=O)NCC(=O)N[C@@H](CCC(=O)O)C(=O)N[C@@H](CC(C)C)C(N)=O)[C@@H](C)CC) [compound 57] | − | − |
| 21 (I[AllylGly]IGRL-NH2; N-terminus assumed; SMILES C=CC[C@H](NC(=O)[C@@H](N)[C@@H](C)CC)C(=O)N[C@H](C(=O)NCC(=O)N[C@@H](CCCNC(=N)N)C(=O)N[C@@H](CC(C)C)C(N)=O)[C@@H](C)CC) [compound 21] | − | − |
| 90 (F[AllylGly]IGRV-NH2; N-terminus assumed; SMILES C=CC[C@H](NC(=O)[C@@H](N)Cc1ccccc1)C(=O)N[C@H](C(=O)NCC(=O)N[C@@H](CCCNC(=N)N)C(=O)N[C@H](C(N)=O)C(C)C)[C@@H](C)CC) [compound 90] | + | + |
| 35 (F[AllylGly]RGRL-NH2; N-terminus assumed; SMILES C=CC[C@H](NC(=O)[C@@H](N)Cc1ccccc1)C(=O)N[C@@H](CCCNC(=N)N)C(=O)NCC(=O)N[C@@H](CCCNC(=N)N)C(=O)N[C@@H](CC(C)C)C(N)=O) [compound 35] | + | + |
| 62 (F[AllylGly]IGKL-NH2; N-terminus assumed; SMILES C=CC[C@H](NC(=O)[C@@H](N)Cc1ccccc1)C(=O)N[C@H](C(=O)NCC(=O)N[C@@H](CCCCN)C(=O)N[C@@H](CC(C)C)C(N)=O)[C@@H](C)CC) [compound 62] | + | + |
| 13 (G[AllylGly]IGRL; not fully specified; printed as Gly−AllylGly−Ile−Gly−Arg−Leu−NR2) [compound 13] | − | − |
| 42 (F[AllylGly]IARL-NH2; N-terminus assumed; SMILES C=CC[C@H](NC(=O)[C@@H](N)Cc1ccccc1)C(=O)N[C@H](C(=O)N[C@@H](C)C(=O)N[C@@H](CCCNC(=N)N)C(=O)N[C@@H](CC(C)C)C(N)=O)[C@@H](C)CC) [compound 42] | + | + |
| 26 (F[AllylGly]SGRL-NH2; N-terminus assumed; SMILES C=CC[C@H](NC(=O)[C@@H](N)Cc1ccccc1)C(=O)N[C@@H](CO)C(=O)NCC(=O)N[C@@H](CCCNC(=N)N)C(=O)N[C@@H](CC(C)C)C(N)=O) [compound 26] | + | + |
| 76 (F[AllylGly]IGRF-NH2; N-terminus assumed; SMILES C=CC[C@H](NC(=O)[C@@H](N)Cc1ccccc1)C(=O)N[C@H](C(=O)NCC(=O)N[C@@H](CCCNC(=N)N)C(=O)N[C@@H](Cc1ccccc1)C(N)=O)[C@@H](C)CC) [compound 76] | + | + |
| 19 (P[AllylGly]IGRL-NH2; N-terminus assumed; SMILES C=CC[C@H](NC(=O)[C@@H]1CCCN1)C(=O)N[C@H](C(=O)NCC(=O)N[C@@H](CCCNC(=N)N)C(=O)N[C@@H](CC(C)C)C(N)=O)[C@@H](C)CC) [compound 19] | − | − |
| 3 (F[AllylGly]IGR-NH2; N-terminus assumed; SMILES C=CC[C@H](NC(=O)[C@@H](N)Cc1ccccc1)C(=O)N[C@H](C(=O)NCC(=O)N[C@@H](CCCNC(=N)N)C(N)=O)[C@@H](C)CC) [compound 3] | − | − |
| 82 (F[AllylGly]IGRY-NH2; N-terminus assumed; SMILES C=CC[C@H](NC(=O)[C@@H](N)Cc1ccccc1)C(=O)N[C@H](C(=O)NCC(=O)N[C@@H](CCCNC(=N)N)C(=O)N[C@@H](Cc1ccc(O)cc1)C(N)=O)[C@@H](C)CC) [compound 82] | + | + |
| 70 (F[AllylGly]IGWL-NH2; N-terminus assumed; SMILES C=CC[C@H](NC(=O)[C@@H](N)Cc1ccccc1)C(=O)N[C@H](C(=O)NCC(=O)N[C@@H](Cc1c[nH]c2ccccc12)C(=O)N[C@@H](CC(C)C)C(N)=O)[C@@H](C)CC) [compound 70] | + |  |
| 45 (F[AllylGly]IHRL-NH2; N-terminus assumed; SMILES C=CC[C@H](NC(=O)[C@@H](N)Cc1ccccc1)C(=O)N[C@H](C(=O)N[C@@H](Cc1c[nH]cn1)C(=O)N[C@@H](CCCNC(=N)N)C(=O)N[C@@H](CC(C)C)C(N)=O)[C@@H](C)CC) [compound 45] | + | + |
| 51 (F[AllylGly]IKRL-NH2; N-terminus assumed; SMILES C=CC[C@H](NC(=O)[C@@H](N)Cc1ccccc1)C(=O)N[C@H](C(=O)N[C@@H](CCCCN)C(=O)N[C@@H](CCCNC(=N)N)C(=O)N[C@@H](CC(C)C)C(N)=O)[C@@H](C)CC) [compound 51] | − | − |
| 9 (T[AllylGly]IGRL-NH2; N-terminus assumed; SMILES C=CC[C@H](NC(=O)[C@@H](N)[C@@H](C)O)C(=O)N[C@H](C(=O)NCC(=O)N[C@@H](CCCNC(=N)N)C(=O)N[C@@H](CC(C)C)C(N)=O)[C@@H](C)CC) [compound 9] |  | − |
| 14 (D[AllylGly]IGRL-NH2; N-terminus assumed; SMILES C=CC[C@H](NC(=O)[C@@H](N)CC(=O)O)C(=O)N[C@H](C(=O)NCC(=O)N[C@@H](CCCNC(=N)N)C(=O)N[C@@H](CC(C)C)C(N)=O)[C@@H](C)CC) [compound 14] |  | − |
| 81 (F[AllylGly]IGRT-NH2; N-terminus assumed; SMILES C=CC[C@H](NC(=O)[C@@H](N)Cc1ccccc1)C(=O)N[C@H](C(=O)NCC(=O)N[C@@H](CCCNC(=N)N)C(=O)N[C@H](C(N)=O)[C@@H](C)O)[C@@H](C)CC) [compound 81] | − |  |
| 68 (F[AllylGly]IGTL-NH2; N-terminus assumed; SMILES C=CC[C@H](NC(=O)[C@@H](N)Cc1ccccc1)C(=O)N[C@H](C(=O)NCC(=O)N[C@H](C(=O)N[C@@H](CC(C)C)C(N)=O)[C@@H](C)O)[C@@H](C)CC) [compound 68] |  | + |
| 69 (F[AllylGly]IGIL-NH2; N-terminus assumed; SMILES C=CC[C@H](NC(=O)[C@@H](N)Cc1ccccc1)C(=O)N[C@H](C(=O)NCC(=O)N[C@H](C(=O)N[C@@H](CC(C)C)C(N)=O)[C@@H](C)CC)[C@@H](C)CC) [compound 69] |  | − |
| 60 (F[AllylGly]IGAL-NH2; N-terminus assumed; SMILES C=CC[C@H](NC(=O)[C@@H](N)Cc1ccccc1)C(=O)N[C@H](C(=O)NCC(=O)N[C@@H](C)C(=O)N[C@@H](CC(C)C)C(N)=O)[C@@H](C)CC) [compound 60] | + |  |
